Values of other authors as cited in patent US4276288A, “Dehydrooligopeptides, their production and their medicinal use” (Troponwerke GmbH & Co., KG, priority 1976, dated 1981).
Like-named read-outs stand apart in the source and are kept apart here.

Test system: tumour cells

Question: Which tumour cells destroyed (LD10 dosage) does the source give for `O=P1(N(CCCl)CCCl)NCCCO1` (centres unmarked) [cyclophosphamide] here?
Answer: 99.999%

Question: And the tumour cells destroyed (one eighth of the LD10 dose)?
Answer: 90%
